Assay results from ChEMBL document CHEMBL1130834, “2(1H)-quinolinone derivatives as novel anti-arteriostenotic agents showing anti-thrombotic and anti-hyperplastic activities” (Bioorg Med Chem Lett, 1998).

Assays:
Mus musculus [1] = assay: In vivo anti-thrombotic activity was evaluated by the inhibition of pulmonary thromboembolism model in mice at a dose of 30 mg/kg (p.o.); assay type: functional; settings: route oral
Oryctolagus cuniculus [2] = species on record: Oryctolagus cuniculus; assay: In vitro inhibitory activity against collagen induced rabbit platelet aggregation; assay type: functional
[3] = (§1) In vitro inhibitory activity against Adenosine diphosphate (ADP) induced rabbit platelet aggregation; assay type: functional, Oryctolagus cuniculus
Mus musculus [4] = assay: In vivo anti-thrombotic activity was evaluated by the inhibition of pulmonary thromboembolism model in mice at a dose of 10 mg/kg (p.o.); assay type: functional; settings: route oral
Rattus norvegicus [5] = assay: In vivo anti-hyperplastic activity was evaluated by the inhibition of balloon injury model in rats at a dose of 30 mg/kg (p.o.); assay type: functional; settings: for inhibition in vivo at 30 mg/kg: Rattus norvegicus, po
Rattus norvegicus [6] = assay: In vivo anti-hyperplastic activity was evaluated by the inhibition of balloon injury model in rats at a dose of 10 mg/kg (p.o.); assay type: functional; settings: route oral
Oryctolagus cuniculus [7] = species on record: Oryctolagus cuniculus; assay: as §1; assay type: functional

`O=C(NCCCOc1ccc2nc(O)ccc2c1)N(C1CC1)[C@H]1CCCC[C@@H]1O` showed an inhibition in vivo at 30 mg/kg (Mus musculus [1]) of 100%, an IC50 (Oryctolagus cuniculus [2]; Oryctolagus cuniculus) of 2.2 µM and an IC50 ([3]; Oryctolagus cuniculus) of 2.4 µM. It also gave an inhibition in vivo at 10 mg/kg (Mus musculus [4]) of 29%, an inhibition in vivo at 30 mg/kg (Rattus norvegicus [5]) of 13% and an inhibition in vivo at 10 mg/kg (Rattus norvegicus [6]) of 1%.

`CCCCO[C@H]1CCCC[C@@H]1N(C(=O)NCCCOc1ccc2nc(O)ccc2c1)C1CC1` showed an inhibition in vivo at 30 mg/kg (Mus musculus [1]) of 33%, an IC50 (Oryctolagus cuniculus [2]; Oryctolagus cuniculus) of 3.5 µM and an IC50 ([3]; Oryctolagus cuniculus) of 0.71 µM. For the same compound, the inhibition in vivo at 30 mg/kg (Rattus norvegicus [5]) was 19%.

`O=C(NCCCOc1ccc2nc(O)ccc2c1)N(C1CC1)[C@H]1CCCC[C@H]1O` gave an inhibition in vivo at 30 mg/kg (Mus musculus [1]) of 100%, an IC50 (Oryctolagus cuniculus [2]; Oryctolagus cuniculus) of 3.3 µM and an IC50 ([3]; Oryctolagus cuniculus) of 2.3 µM. The inhibition in vivo at 30 mg/kg (Rattus norvegicus [5]) was 19%.

In the case of `O=C(NCCCOc1ccc2nc(O)ccc2c1)N(C1CCCCC1)[C@H]1CCCC[C@@H]1O`, the inhibition in vivo at 30 mg/kg (Mus musculus [1]) is reported as 57%, the IC50 (Oryctolagus cuniculus [2]; Oryctolagus cuniculus) is reported as 0.15 µM and the IC50 ([3]; Oryctolagus cuniculus) is reported as 0.19 µM. For the same compound, the inhibition in vivo at 30 mg/kg (Rattus norvegicus [5]) was 18%.

For `O=C(NCCCOc1ccc2nc(O)ccc2c1)N(C1CC1)[C@H]1CC[C@H](O)CC1`, the inhibition in vivo at 30 mg/kg (Mus musculus [1]) was 0%, the IC50 (Oryctolagus cuniculus [2]; Oryctolagus cuniculus) was 3.1 µM and the IC50 ([3]; Oryctolagus cuniculus) was 3.8 µM. It also gave an inhibition in vivo at 30 mg/kg (Rattus norvegicus [5]) of 7%.

Compound `CCN(CCCOc1ccc2nc(O)ccc2c1)C(=O)N(C)C1CCCCC1` has an inhibition in vivo at 30 mg/kg (Mus musculus [1]) of 58%, an IC50 (Oryctolagus cuniculus [2]; Oryctolagus cuniculus) of 16 µM and an IC50 ([3]; Oryctolagus cuniculus) of 15 µM. It also gave an inhibition in vivo at 30 mg/kg (Rattus norvegicus [5]) of 12%.

`O=C(NCCCOc1ccc2nc(O)ccc2c1)N(C1CCCCCC1)[C@H]1CCCC[C@@H]1O` gave an inhibition in vivo at 30 mg/kg (Mus musculus [1]) of 69%, an IC50 (Oryctolagus cuniculus [2]; Oryctolagus cuniculus) of 0.03 µM and an IC50 ([3]; Oryctolagus cuniculus) of 0.12 µM. It also gave an inhibition in vivo at 30 mg/kg (Rattus norvegicus [5]) of 11%.

`CN(C(=O)NCCCOc1ccc2nc(O)ccc2c1)C1CCCCC1` gave an inhibition in vivo at 30 mg/kg (Mus musculus [1]) of 21%, an IC50 (Oryctolagus cuniculus [7]) of 2.6 µM and an IC50 (Oryctolagus cuniculus [2]; Oryctolagus cuniculus) of 2.7 µM. For the same compound, the inhibition in vivo at 30 mg/kg (Rattus norvegicus [5]) was 15%.

Compound `O=C(NCCCOc1ccc2nc(O)ccc2c1)N(C1CC1)[C@@H]1CCCCC[C@H]1O` has an inhibition in vivo at 30 mg/kg (Mus musculus [1]) of 44%, an IC50 (Oryctolagus cuniculus [2]; Oryctolagus cuniculus) of 2.8 µM and an IC50 ([3]; Oryctolagus cuniculus) of 2.6 µM. It also gave an inhibition in vivo at 30 mg/kg (Rattus norvegicus [5]) of 0%.

`CN(C(=O)CCCOc1ccc2[nH]c(=O)ccc2c1)C1CCCCC1` [CILOSTAMIDE] showed an inhibition in vivo at 30 mg/kg (Mus musculus [1]) of 84%, an IC50 (Oryctolagus cuniculus [2]; Oryctolagus cuniculus) of 2.2 µM and an IC50 ([3]; Oryctolagus cuniculus) of 2.4 µM. It also gave an inhibition in vivo at 30 mg/kg (Rattus norvegicus [5]) of 42%.

For `CN(C(=O)NCCCOc1ccc2nc(O)ccc2c1)[C@@H]1CCCC[C@H]1O`, the inhibition in vivo at 30 mg/kg (Mus musculus [1]) was 18%, the IC50 (Oryctolagus cuniculus [2]; Oryctolagus cuniculus) was 15 µM and the IC50 ([3]; Oryctolagus cuniculus) was 3.9 µM. The inhibition in vivo at 30 mg/kg (Rattus norvegicus [5]) was 10%.

In the case of `O=C(NCCCOc1ccc2nc(O)ccc2c1)N(C1CC1)[C@@H]1CCC[C@H]1O`, the inhibition in vivo at 30 mg/kg (Mus musculus [1]) is reported as 67%, the IC50 (Oryctolagus cuniculus [2]; Oryctolagus cuniculus) is reported as 3.5 µM and the IC50 ([3]; Oryctolagus cuniculus) is reported as 2.5 µM. The inhibition in vivo at 30 mg/kg (Rattus norvegicus [5]) was 23%.

`O=C(NCCCOc1ccc2[nH]c(=O)ccc2c1)N(C1CC1)[C@@H]1CCCC[C@H]1O` (stereo in doubt; 1d) [K-134] gave an IC50 (Oryctolagus cuniculus [2]) of 3.1 µM, an IC50 [3] of 2.5 µM and an Inhibition (Rattus norvegicus [5]; route oral, 30 mg/kg) of 29%.

`O=C(NCCCOc1ccc2nc(O)ccc2c1)N(C1CCCCCCC1)[C@H]1CCCC[C@@H]1O` showed an inhibition in vivo at 30 mg/kg (Mus musculus [1]) of 100%, an IC50 (Oryctolagus cuniculus [2]; Oryctolagus cuniculus) of 0.03 µM and an IC50 ([3]; Oryctolagus cuniculus) of 0.08 µM. It also gave an inhibition in vivo at 30 mg/kg (Rattus norvegicus [5]) of 27%.

Compound `O=C(NCCCOc1ccc2nc(O)ccc2c1)N(C1CCCCC1)C1CC1` has an inhibition in vivo at 30 mg/kg (Mus musculus [1]) of 100%, an IC50 (Oryctolagus cuniculus [2]; Oryctolagus cuniculus) of 2.4 µM and an IC50 ([3]; Oryctolagus cuniculus) of 2.2 µM. The inhibition in vivo at 30 mg/kg (Rattus norvegicus [5]) was 15%.

For `CC(=O)Oc1ccccc1C(=O)O` [ASPIRIN], the inhibition in vivo at 30 mg/kg (Mus musculus [1]) was 33%, the IC50 (Oryctolagus cuniculus [2]; Oryctolagus cuniculus) was > 1000 µM and the IC50 ([3]; Oryctolagus cuniculus) was > 1000 µM. For the same compound, the inhibition in vivo at 30 mg/kg (Rattus norvegicus [5]) was 16%.

In the case of `O=C(NCCCOc1ccc2nc(O)ccc2c1)N(C1CCCC1)[C@H]1CCCC[C@@H]1O`, the inhibition in vivo at 30 mg/kg (Mus musculus [1]) is reported as 78%, the IC50 (Oryctolagus cuniculus [2]; Oryctolagus cuniculus) is reported as 1.8 µM and the IC50 ([3]; Oryctolagus cuniculus) is reported as 0.27 µM. For the same compound, the inhibition in vivo at 30 mg/kg (Rattus norvegicus [5]) was 20%.

Compound `O=C(NCCCOc1ccc2[nH]c(=O)ccc2c1)N(C1CC1)[C@@H]1CCCC[C@H]1O` (stereo in doubt; 1p) [K-134] has an inhibition in vivo at 30 mg/kg (Mus musculus [1]) of 100%, an IC50 (Oryctolagus cuniculus [2]; Oryctolagus cuniculus) of 2.2 µM and an IC50 ([3]; Oryctolagus cuniculus) of 2.3 µM. It also gave an inhibition in vivo at 10 mg/kg (Mus musculus [4]) of 88%, an inhibition in vivo at 30 mg/kg (Rattus norvegicus [5]) of 24% and an inhibition in vivo at 10 mg/kg (Rattus norvegicus [6]) of 26%.

For `O=C1CCc2cc(OCCCCc3nnnn3C3CCCCC3)ccc2N1` [CILOSTAZOL], the inhibition in vivo at 30 mg/kg (Mus musculus [1]) was 82%, the IC50 (Oryctolagus cuniculus [2]; Oryctolagus cuniculus) was 31 µM and the IC50 ([3]; Oryctolagus cuniculus) was 29 µM. For the same compound, the inhibition in vivo at 30 mg/kg (Rattus norvegicus [5]) was 12%.

With `O=C(NCCCOc1ccc2nc(O)ccc2c1)N(C1CC1)[C@@H]1CCC[C@@H](O)C1` the inhibition in vivo at 30 mg/kg (Mus musculus [1]) was 20%, the IC50 (Oryctolagus cuniculus [2]; Oryctolagus cuniculus) was 2.8 µM and the IC50 ([3]; Oryctolagus cuniculus) was 3 µM. For the same compound, the inhibition in vivo at 30 mg/kg (Rattus norvegicus [5]) was 0%.
